Assay results as given in patent US4202891A, “15-Oxygenated sterol compounds and the use of such compounds to inhibit the biosynthesis of sterols” (priority 1977, dated 1980).
Where two headings read alike, the source gives them in different places.

How the values were obtained:
[1] = tested on: sterol biosynthesis in L cells; experiment: Inhibition of sterol synthesis from [1-14C]acetate in L cell cultures; type: cell-based; settings: Mus musculus, read-out: Concentrations Required for 50% Inhibition of Sterol Synthesis
Procedure: (§1) The effect of various 15-oxygenated sterols on sterol biosynthesis in L cells and in primary cultures of mouse liver cells was tested essentially under conditions described in detail previously [A. A. Kandutsch and H. W. Chen, J. Biol. Chem., Vol. 248, pp. 8408-8417 (1973) and A. A. Kandutsch and H. W. Chen, J. Biol. Chem., Vol. 249, pp. 6057-6061 (1974`)].
(§2) The primary liver cell cultures were prepared from 16-day-old (C57BL/6J fetuses and grown in chemically defined medium (serum-free) as described in the above cited publications. The L cells, a subline of NCTC clone 929 mouse fibroblasts, were grown in chemically defined medium (serum-free) as described in the publications. These L cells are transformed fibroblasts which are regarded as malignant since they will grow as tumors if injected into the mouse strain from which they were initially obtained.
(§3) The preparation of steroid-containing media, procedures for assays of the conversion of [1-^14 C]acetate into digitonin-precipitable sterols, fatty acids, and CO2 and methods for the measurement of DNA, protein, and HMG-CoA reductase were as described in the published articles. L cell cultures were preincubated with the 15-oxygenated sterols and their derivatives for 4 hours, then [1-^14 C]acetate was added at a concentration of 4 μmoles per ml (4 μCi per ml); or the L cell cultures were incubated for 5 hours with the 15-oxygenated sterols before they were harvested for determination of microsomal HMG-CoA reductase activity.
(§4) The test compounds were tested over a range of at least 4 concentrations and the assay was repeated until the concentration of test compound required to produce 50% inhibition was located on the steeply declining portion of an activity vs. concentration plot. To diminish any possible effects of generalized differences in cellular metabolism, the rates of sterol synthesis from [1-^14 C]acetate were calculated as the ratio of [^14 C]sterols to [^14 C]fatty acids as described in the two cited articles by Kandutsch and Chen.

[2] = tested on: sterol biosynthesis in primary cultures of mouse liver cells; experiment: Inhibition of sterol synthesis from [1-14C]acetate in primary cultures of liver cells; type: cell-based; settings: read-out: Concentrations Required for 50% Inhibition of Sterol Synthesis
Procedure: as §1, §2, §3
(§5) Conditions for incubating the 15-oxygenated sterols or their derivatives with liver cell cultures were similar to those described for L cell cultures except that the cultures were incubated with the test compounds for 12 hours before labeled acetate was added or before they were harvested for enzyme assay.
as §4

[3] = tested on: HMG-CoA reductase; experiment: Reduction of the activity of HMG-CoA reductase in L cell cultures; type: cell-based, mouse; settings: read-out: Concentrations Required for 50% Reduction of the Activity of HMG-CoA Reductase
Procedure: as §2, §3
(§6) A number of the 15-oxygenated sterols have also been tested with respect to their effects on the activity and/or levels of the enzyme HMG-CoA reductase (3-hydroxy-3-methylglutaryl coenzyme A reductase) in the L cells and in the liver cells. As noted previously, this enzyme catalyzes the reduction of 3-hydroxy-3-methylglutaryl coenzyme A to yield mevalonic acid, an essential intermediate in the biosynthesis of sterols and of a number of other essential compounds in cells.
(§7) Using the technique described by Kandutsch and Chen in the article cited in the previous example, the concentrations of various 15-oxygenated sterols required to reduce the levels of activity of HMG-CoA reductase by 50% was determined in the cells of the L cells in culture and of the primary cultures of liver cells.

[4] = tested on: HMG-CoA reductase; experiment: Reduction of the activity of HMG-CoA reductase in primary cultures of liver cells; type: cell-based, mouse; settings: read-out: Concentrations Required for 50% Reduction of the Activity of HMG-CoA Reductase
Procedure: as §2, §3, §5, §6, §7

[5] = tested on: sterol biosynthesis in primary cultures of mouse liver cells; settings: primary cultures of liver cells, cited from earlier work; for IC50: as reported by Kandutsch and Chen, read-out: Concentrations Required for 50% Inhibition of Sterol Synthesis
[6] = tested on: sterol biosynthesis in L cells; settings: L cell cultures; as reported by Kandutsch and Chen; read-out: Concentrations Required for 50% Inhibition of Sterol Synthesis; cited from earlier work

SMILES | IC50 [1] [µM] | IC50 [2] [µM] | IC50 [3] [µM] | IC50 [4] [µM] | IC50 [5] [µM] | activity in the liver cell culture system (in words) [5] | IC50 [6] [µM] | IC50 ([1]; L cell cultures) [µM] | IC50 ([2]; primary cultures of liver cells) [µM]
CC(C)CCC[C@@H](C)[C@H]1C[C@H](O)[C@@]2(C)C3=CC[C@H]4C[C@@H](O)CC[C@]4(C)[C@H]3CC[C@]12C [14α-Methyl-5α-cholest-7-en-3β,15α-diol] | 0.3 | 1.8 | 0.3 | 2 | – | – | – | – | –
CC(C)CCC[C@@H](C)[C@H]1C[C@@H](O)[C@@]2(C)C3=CC[C@H]4C[C@@H](O)CC[C@]4(C)[C@H]3CC[C@]12C [14α-Methyl-5α-cholest-7-en-3β,15β-diol] | 0.5 | – | 1.2 | 4.3 | – | – | – | – | –
CC[C@@]12C(=O)C[C@H]([C@H](C)CCCC(C)C)[C@@]1(C)CC[C@H]1C2=CC[C@H]2C[C@@H](O)CC[C@@]21C [14α-Ethyl-5α-cholest-7-en-3β-ol-15-one, 14α-ethyl-5α-cholest-7-en-3β-ol-15-one] | 0.3 | 2.1 | 1.9 | 2.1 | – | – | – | – | –
CC(C)CCC[C@@H](C)[C@H]1C[C@@H](O)[C@@H]2C3=CC[C@H]4C[C@@H](O)CC[C@]4(C)[C@H]3CC[C@]12C [5α,14β-Cholest-7-en-3β,15β-diol, 5α,14β-cholest-7-en-3β,15β-diol] | 1 | 2.5 | 4.5 | 6 | – | – | – | – | –
CC(C)CCC[C@@H](C)[C@H]1CC[C@H]2[C@@H]3CC=C4C[C@@H](O)CC[C@]4(C)[C@H]3CC[C@]12C [Cholesterol] | – | – | – | – | > 5200 | inactive | – | – | –
CO[C@H]1CC[C@@]2(C)[C@@H](CC=C3[C@@H]2CC[C@]2(C)[C@@H]([C@H](C)CCCC(C)C)C[C@H](O)[C@@]32C)C1 [3β-methoxy-14α-methyl-5α-cholest-7-en-15α-ol] | 0.3 | 1.9 | 3 | 1.6 | – | – | – | – | –
CO[C@H]1CC[C@@]2(C)[C@@H](CC=C3[C@@H]2CC[C@]2(C)[C@@H]([C@H](C)CCCC(C)C)C[C@@H](O)[C@@]32C)C1 [3β-methoxy-14α-methyl-5α-cholest-7-en-15β-ol] | 1.4 | 3.5 | 3.7 | 3.5 | – | – | – | – | –
CC(C)CCC[C@@H](C)[C@H]1CC(=O)[C@@]2(C)C3=CC[C@H]4C[C@@H](O)CC[C@]4(C)[C@H]3CC[C@]12C [14α-Methyl-5α-cholest-7-en-3β-ol-15-one, 14α-methyl-5α-cholest-7-en-3β-ol-15-one] | 0.3 | 4.5 | 0.3 | 2.8 | – | – | – | – | –
CC(C)CCC[C@@H](C)[C@H]1C[C@H](O)[C@@H]2C3=CC[C@H]4C[C@@H](O)CC[C@]4(C)[C@H]3CC[C@]12C [5α,14β-Cholest-7-en-3β,15α-diol, 5α,14β-cholest-7-en-3β,15α-diol] | 3.2 | 7.5 | 6.7 | 12.5 | – | – | – | – | –
CC(C)CCC(=O)[C@@H](C)[C@H]1CC[C@H]2[C@@H]3CC=C4C[C@@H](O)CC[C@]4(C)[C@H]3CC[C@]12C [Cholest-5-en-3β-ol-22-one] | – | – | – | – | 37 | – | 1.7 | – | –
CC(C)CCC(O)[C@@H](C)[C@H]1CC[C@H]2[C@@H]3CC=C4C[C@@H](O)CC[C@]4(C)[C@H]3CC[C@]12C (stereo partly drawn) [Cholest-5-en-3β,22α-diol] | – | – | – | – | 6 | – | 3.7 | – | –
CC(C)CCC[C@@H](C)[C@H]1CC(O)C2=C3C(O)C[C@H]4C[C@@H](O)CC[C@]4(C)[C@H]3CC[C@@]21C (stereo partly drawn) [5α-cholest-8(14)-en-3β,7ε,15ε-triol] | – | – | 1.9 | 18 | – | – | – | 5 | 4.8
CC(C)CCC[C@@H](C)[C@H]1C[C@@H](O)C2=C3CC[C@H]4C[C@@H](O)CC[C@]4(C)[C@H]3CC[C@@]21C [5α-Cholest-8(14)-en-3β,15β-diol] | 1.8 | 10.3 | 2.5 | 16.1 | – | – | – | – | –
